Assays:
[1] = tested on: HL-60; test: Inhibitory activity on the proliferation of Human myeloid leukemia HL-60 cancer cells using MTT or sulforhodamine B assay; type: functional, cell-based
[2] = tested on: A549; test: Inhibitory activity on the proliferation of Human lung carcinoma A549 cancer cells using MTT or sulforhodamine B assay; type: functional, cell-based
[3] = tested on: HT-1080; test: Inhibitory activity on the proliferation of Human fibrosarcoma HT1080 cancer cells using MTT or sulforhodamine B assay; type: functional, cell-based
[4] = Inhibitory activity on the proliferation of Human colon carcinoma […] cancer cells using MTT or sulforhodamine B assay; type: functional, cell-based; conditions: Cancer cell lines
[5] = tested on: A549; test: Effect of compound on cell cycle progression in Human lung A549 cancer cells at G0/G1 phase after 16 hours of administration; type: functional
[6] = tested on: A549; test: Effect of compound on cell cycle progression in Human lung A549 cancer cells at G0/G1 phase after 24 hours of administration; type: functional
[7] = tested on: A549; test: Effect of compound on cell cycle progression in Human lung A549 cancer cells at G2/M phase after 16 hours of administration; type: functional
[8] = tested on: A549; test: Effect of compound on cell cycle progression in Human lung A549 cancer cells at G2/M phase after 8 hours of administration; type: functional
[9] = tested on: A549; test: Effect of compound on cell cycle progression in Human lung A549 cancer cells at S phase after 8 hours of administration; type: functional
[10] = tested on: A549; test: Effect of compound on cell cycle progression in Human lung A549 cancer cells at S phase after 16 hours of administration; type: functional
[11] = tested on: A549; test: Effect of compound on cell cycle progression in Human lung A549 cancer cells at Sub-G0 phase after 8 hours of administration; type: functional
[12] = tested on: A549; test: Effect of compound on cell cycle progression in Human lung A549 cancer cells at G2/M phase after 24 hours of administration; type: functional
[13] = tested on: A549; test: Effect of compound on cell cycle progression in Human lung A549 cancer cells at Sub-G0 phase after 16 hours of administration; type: functional
[14] = tested on: A549; test: Effect of compound on cell cycle progression in Human lung A549 cancer cells at S phase after 24 hours of administration; type: functional
[15] = tested on: A549; test: Effect of compound on cell cycle progression in Human lung A549 cancer cells at G0/G1 phase after 8 hours of administration; type: functional
[16] = tested on: A549; test: Effect of compound on cell cycle progression in Human lung A549 cancer cells at Sub-G0 phase after 24 hours of administration; type: functional

SMILES	IC50 [1] [µM]	IC50 [2] [µM]	IC50 [3] [µM]	IC50 [4] [µM]	Activity [5] [%]	Activity [6] [%]	Activity [7] [%]	Activity [8] [%]	Activity [9] [%]	Activity [10] [%]	Activity [11] [%]	Activity [12] [%]	Activity [13] [%]	Activity [14] [%]	Activity [15] [%]	Activity [16] [%]
O=C1C(c2c(O)[nH]c3ccc(S(=O)(=O)O)cc23)=Nc2ccccc21	> 100	> 100	> 100	> 100												
O=Nc1c(-c2c(O)[nH]c3ccc([N+](=O)[O-])cc23)[nH]c2ccccc12	9.2	5.4	5.9	25.5	46.5	39.9	21.7	27.1	26.8	31.8	0	22	0	16.1	46.1	22
O=Nc1c(-c2c(O)[nH]c3ccccc23)[nH]c2ccccc12 [INDIRUBIN-3-MONOXIME]	> 100	62	4.8	> 100												
O=C1Nc2ccccc2/C1=C1/Nc2ccccc2C1=O [INDIRUBIN]	> 100	31	42.2	> 100												
